These results are taken from the NIST ThermoML archive (doi:10.1021/je050403k).

Where “and” joins values, the source holds several entries; their conditions need not be identical. Identical values can stand only once. ± gives the expanded uncertainty stated by the source.

For the data set the following is noted: Liquid.

As for `C=CCC` [1-butene], the “vapor or sublimation pressure” value (364.51 K) was 1510.5 ± 10 kPa.

With `CC(C)C` [2-methylpropane], where the note is “364.5 K”, the “vapor or sublimation pressure” value is listed as 1685.6 ± 12 kPa.

On to `CCCC` [butane], for which, for the setting “364.51 K”, the “vapor or sublimation pressure” value amounted to 1284.5 ± 8.9 kPa.

Consider `C/C=C\C` [(Z)-2-butene], for which, under “365.43 K”, the “vapor or sublimation pressure” value is given as 1213 ± 8.5 kPa.

`CC(C)=O` [acetone]: the “vapor or sublimation pressure” value (364.51 K) was 297.1 ± 2.1 kPa and 294.3 ± 2.1 kPa and 296.4 ± 2.1 kPa; the “vapor or sublimation pressure” value (364.52 K) amounted to 296.8 ± 2.1 kPa; the “vapor or sublimation pressure” value (365.43 K) is listed as 302.56 ± 2.1 kPa.

Regarding `C/C=C/C` [(E)-2-butene], the “vapor or sublimation pressure” value (364.5 K) stood at 1269.2 ± 8.9 kPa.

On to `C=C(C)C` [2-methylpropene], for which the “vapor or sublimation pressure” value (364.51 K) is recorded as 1546.2 ± 11 kPa.

As a reminder, the vapor or sublimation pressure is the equilibrium pressure above the liquid or solid.
